Source: patent publication US9302999B2, “Substituted triazoles as herbicides” (E. I. DU PONT DE NEMOURS AND COMPANY, priority 2012, dated 2016)

Tests used:
Type in all cases: in vivo
[1] = tested on: foxtail, giant (giant foxtail, Setaria faberii); test: Test A pre-/postemergence: foxtail, giant; settings: for Foxtail, Giant plant response rating: Postemergence; for Plant response rating, Foxtail, Giant: Preemergence
In short: (§1)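 Each species received preemergence soil-directed spraying and, at the same time, postemergence treatment of seedlings 2–10 cm tall. Formulation: non-phytotoxic solvent mixture including surfactant. Response assessed visually about ten days on, relative to untreated controls, 0–100 scale.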

[2] = tested on: ducksalad (Heteranthera limosa); test: Test C flooded paddy test: ducksalad; settings: scale 0 to 100 (0 no effect, 100 complete control)
In short: (§2)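 Rating: visual, 0–100 (100 = complete control), versus untreated controls after 13 to 15 greenhouse days. Treatment went into paddy water held at 3 cm over the soil, on plants grown to two leaves.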

[3] = tested on: wheat (Triticum aestivum); test: Test A pre-/postemergence: wheat; settings: for Wheat plant response rating: Postemergence; for Plant response rating, Wheat: Preemergence
In short: as §1

corn (Zea mays) = test: Test A pre-/postemergence: corn; settings: for Corn plant response rating: Postemergence; for Plant response rating, Corn: Preemergence
In short: as §1

[4] = tested on: pigweed (Amaranthus retroflexus); test: Test A pre-/postemergence: pigweed; settings: for Pigweed plant response rating: Postemergence; for Plant response rating, Pigweed: Preemergence
In short: as §1

rice (Oryza sativa) = test: Test C flooded paddy test: rice; settings: scale 0 to 100 (0 no effect, 100 complete control)
In short: as §2

[5] = tested on: barnyardgrass (Echinochloa crus-galli); test: Test C flooded paddy test: barnyardgrass; settings: scale 0 to 100 (0 no effect, 100 complete control)
In short: as §2

[6] = tested on: barnyardgrass (Echinochloa crus-galli); test: Test A pre-/postemergence: barnyardgrass; settings: for Barnyardgrass plant response rating: Postemergence; for Plant response rating, Barnyardgrass: Preemergence
In short: as §1

[7] = tested on: morningglory (Ipomoea spp.); test: Test A pre-/postemergence: morningglory; settings: for Morningglory plant response rating: Postemergence; for Plant response rating, Morningglory: Preemergence
In short: as §1

[8] = tested on: velvetleaf (Abutilon theophrasti); test: Test A pre-/postemergence: velvetleaf; settings: for Velvetleaf plant response rating: Postemergence; for Plant response rating, Velvetleaf: Preemergence
In short: as §1

[9] = tested on: sedge, umbrella (small-flower umbrella sedge, Cyperus difformis); test: Test C flooded paddy test: sedge, umbrella; settings: scale 0 to 100 (0 no effect, 100 complete control)
In short: as §2

[10] = tested on: crabgrass, large (large crabgrass, Digitaria sanguinalis); test: Test A pre-/postemergence: crabgrass, large; settings: for Crabgrass, Large plant response rating: Postemergence; for Plant response rating, Crabgrass, Large: Preemergence
In short: as §1

[11] = 125 g ai/ha, 0 to 100 scale, 0 is no effect, 100 is complete control
[12] = 500 g ai/ha, visual rating on 0 to 100 scale (0 no effect, 100 complete control), approximately ten days
[13] = 125 g ai/ha, 0 to 100 scale (0 no effect, 100 complete control)
[14] = 500 g ai/ha, 0 to 100 scale, 0 is no effect, 100 is complete control
[15] = Flood (flooded paddy test), 62 g ai/ha, visual rating after 13 to 15 days
[16] = Flood (flooded paddy test), 125 g ai/ha, visual rating after 13 to 15 days
[17] = Flood (flooded paddy test), 250 g ai/ha, visual rating after 13 to 15 days

Cc1nn(-c2cccc(C(F)(F)F)c2)nc1Oc1ccnc(C(F)(F)F)c1 [Compound 40]
80: Plant response rating, Barnyardgrass [6, 14] | Plant response rating, Sedge, Umbrella [9, 16] | Plant response rating, Sedge, Umbrella [9, 17] | Crabgrass, Large plant response rating [10, 11]
60: Foxtail, Giant plant response rating [1, 11] | Plant response rating, Ducksalad [2, 16]
90: Foxtail, Giant plant response rating [1, 12] | Plant response rating, Pigweed [4, 13] | Crabgrass, Large plant response rating [10, 12]
75: Plant response rating, Sedge, Umbrella [9, 15]
70: Plant response rating, Ducksalad [2, 17] | Morningglory plant response rating [7, 11] | Velvetleaf plant response rating [8, 11] | Plant response rating, Sedge, Umbrella ([9]; Flood, 31 g ai/ha)
0: Plant response rating, Wheat [3, 13] | Plant response rating, Corn (corn (Zea mays); [13]) | Plant response rating, Rice (rice (Oryza sativa); Flood, 31 g ai/ha) | Plant response rating, Morningglory [7, 13]
20: Wheat plant response rating [3, 11] | Plant response rating, Wheat [3, 14] | Plant response rating, Rice (rice (Oryza sativa); [16]) | Plant response rating, Barnyardgrass [5, 15] | Plant response rating, Barnyardgrass ([5]; Flood, 31 g ai/ha) | Plant response rating, Velvetleaf [8, 14]
25: Plant response rating, Rice (rice (Oryza sativa); [17])
30: Plant response rating, Ducksalad [2, 15] | Plant response rating, Ducksalad ([2]; Flood, 31 g ai/ha) | Wheat plant response rating [3, 12] | Corn plant response rating (corn (Zea mays); [12]) | Plant response rating, Barnyardgrass [5, 16] | Plant response rating, Barnyardgrass [5, 17] | Barnyardgrass plant response rating [6, 11] | Plant response rating, Barnyardgrass [6, 13]
10: Corn plant response rating (corn (Zea mays); [11]) | Plant response rating, Corn (corn (Zea mays); [14]) | Plant response rating, Rice (rice (Oryza sativa); [15]) | Plant response rating, Morningglory [7, 14] | Plant response rating, Velvetleaf [8, 13]
100: Plant response rating, Foxtail, Giant [1, 13] | Plant response rating, Foxtail, Giant [1, 14] | Pigweed plant response rating [4, 11] | Pigweed plant response rating [4, 12] | Plant response rating, Pigweed [4, 14] | Morningglory plant response rating [7, 12] | Velvetleaf plant response rating [8, 12] | Plant response rating, Crabgrass, Large [10, 13] | Plant response rating, Crabgrass, Large [10, 14]
40: Barnyardgrass plant response rating [6, 12]

Cc1nn(-c2cccc(C(F)(F)F)c2)nc1Oc1cc(C(F)(F)F)ncn1 [Compound 38]
0: Foxtail, Giant plant response rating [1, 11] | Foxtail, Giant plant response rating [1, 12] | Plant response rating, Foxtail, Giant [1, 13] | Plant response rating, Ducksalad [2, 15] | Plant response rating, Ducksalad [2, 17] | Wheat plant response rating [3, 11] | Wheat plant response rating [3, 12] | Plant response rating, Wheat [3, 13] | Plant response rating, Wheat [3, 14] | Corn plant response rating (corn (Zea mays); [11]) | Corn plant response rating (corn (Zea mays); [12]) | Plant response rating, Corn (corn (Zea mays); [13]) | Plant response rating, Corn (corn (Zea mays); [14]) | Pigweed plant response rating [4, 11] | Plant response rating, Pigweed [4, 13] | Plant response rating, Rice (rice (Oryza sativa); [15]) | Plant response rating, Rice (rice (Oryza sativa); [17]) | Plant response rating, Barnyardgrass [5, 15] | Plant response rating, Barnyardgrass [5, 17] | Barnyardgrass plant response rating [6, 11] | Barnyardgrass plant response rating [6, 12] | Plant response rating, Barnyardgrass [6, 13] | Plant response rating, Barnyardgrass [6, 14] | Morningglory plant response rating [7, 11] | Morningglory plant response rating [7, 12] | Plant response rating, Morningglory [7, 13] | Plant response rating, Morningglory [7, 14] | Velvetleaf plant response rating [8, 11] | Plant response rating, Velvetleaf [8, 13] | Plant response rating, Velvetleaf [8, 14] | Plant response rating, Sedge, Umbrella [9, 15] | Plant response rating, Sedge, Umbrella [9, 17]
30: Pigweed plant response rating [4, 12]
10: Plant response rating, Pigweed [4, 14]
50: Crabgrass, Large plant response rating [10, 12] | Plant response rating, Crabgrass, Large [10, 13]
20: Plant response rating, Foxtail, Giant [1, 14] | Crabgrass, Large plant response rating [10, 11]
60: Velvetleaf plant response rating [8, 12] | Plant response rating, Crabgrass, Large [10, 14]
